Consider four substances from patent US7655810B2, “Phosphine transition metal complex, method for producing the same, and antitumor agent containing the same” (Nippon Chemical Industrial Co., Ltd., priority 2005, dated 2010).

Data set [1] deals with female Sprauge-Dawley SPF rats. The experiment in a line: Toxicity test by single oral administration to rats. It is filed as in vivo, rat. How it is done: After female Sprauge-Dawley SPF rats (CrJ: CD (SD)) were quarantined and acclimated for about a week, healthy 8-week-old rats were selected in groups of five rats. The rats was fasted overnight before administration, and single oral doses of 20, 50, 100, and 300 mg/kg of the phosphine gold complex, and 10, 20, 50, and 100 mg/kg of cisplatin dissolved in corn oil were administrated the respective rats. The rats were observed 10 and 30 minutes and 1, 2, and 4 hours after administration, and further observed daily until the 14th day.

Data set [2] relates to HL-60 (human acute myelocytic leukemia cells). The experiment in a line: Evaluation of antitumor activity, MTT viable cell count (modified Mosmann method). It is filed as cell-based. The settings on record: read-out: IC50 (50% inhibitory concentration from viable cell count), HL-60 cells, 24 hours culture, average of at least three measured values. The method, then:
Cisplatin was also evaluated as a comparative example by the same method.
HL-60 (human acute myelocytic leukemia cells) was used as cancer cells. The cells were cultured in Rosewell Park Memorial Institute medium (RPMI 1640) supplemented with 10% fetal bovine serum, 1% antibiotic, and an antifungal agent in an atmosphere of 5% carbon dioxide in a moist incubator at 37° C.
The cells were washed with PBS. After the cell count was determined, a suspension (1×10^5 cells/mL) was prepared with the same medium. The suspension was seeded at a density of […] in a sterile 96-well microplate.
The prepared solutions were respectively added to the wells and cultured in the incubator for 24 hours.
The viable cell count was determined by a modified Mosmann method (T. Mosmann, J. Immunol. Method (1983) 65, 55-63). More specifically, a solution of a tetrazolium salt (3,[4,5-dimethylthiazole-2-yl]-2,5-diphenyltetrazolium bromide, MTT) was added to the wells. The wells were cultured for another 3 hours under the same conditions. Formazan crystals formed by the enzyme activity of mitochondria in the cells were dissolved in 0.04 mol/L HCl isopropyl alcohol solution, and the absorbance of each well was measured at 595 nm with a microplate reader (Bio-Rad 550). The background noises were canceled by subtracting the absorbance at 630 nm from the absorbance at 595 nm to obtain a viable cell count. […] For the calculation for IC50, at least three measured values obtained under the same conditions were averaged.

For “Bis(1,2-bis((2R,5R)-2,5-(dimethylphosphorano)benzene))gold (I) Chloride [Example 4]”, the “Change in general conditions, body weight and internal organs” value in data set [1] (single oral administration, over the period of the test (14 days)) is “no specific change in general conditions, body weight, and internal organs was observed”. In addition, in data set [1] (single oral doses of 20, 50, 100 and 300 mg/kg, until the 14th day), the Survival of rats result is reported as “did not die even at the 14th day”. In data set [2], the IC50 was 542 nM.
Regarding “Bis(1,2-bis((2S,5S)-2,5-(dimethylphosphorano)benzene))gold (I) Chloride [Example 3]”, in data set [2], the IC50 is 3550 nM.
Consider “Bis((+)-1,2-bis((2R,5R)-2,5-dimethylphosphorano)ethane)gold (I) Chloride [Example 1]”, for which the IC50 in data set [2] was determined as 2750 nM.
Regarding “Bis((−)-1,2-bis((2S,5S)-2,5-dimethylphosphorano)ethane)gold (I) Chloride [Example 2]”, the IC50 in data set [2] is 1660 nM.
